Source: article PMC3516570, “The GM2 Glycan Serves as a Functional Coreceptor for Serotype 1 Reovirus” (PLoS Pathogens, 2012)

B1: reovirus type 1 Lang (T1L) σ1, construct σ1_(long) (amino acids 261–470), GCN4 domain and His6-tag removed (domain or fragment)
chain: LESAKIDSVLPPLTVREASGVRTLSFGYDTSDFTIINSVLSLRSRLTLPTYRYPLELDTANNRVQVADRFGMRTGTWTGQLQYQHPQLSWRANVTLNLMKVDDWLVLSFSQMTTNSIMADGKFVINFVSGLSSGWQTGDTEPSSTIDPLSTTFAAVQFLNNGQRIDAFRIMGVSEWTDGELEIKNYGGTYTGHTQVYWAPWTIMYPCNVR
notes: Made as His6-GCN4(trimeric)-σ1(261–470) in pQE-80L; Crystals were soaked with GM2 or GM3 glycan; also called cleaved σ1_(long); σ1 attachment protein; not shown: His6, N-terminal, cleaved; GCN4 trimeric leucine zipper, N-terminal, cleaved

Tests used:
T1L σ1long = target: T1, T1L σ1long (Mammalian orthoreovirus 1 Lang, UniProt P04506); assay: X-ray crystal structure ([…] Å); also STD NMR; assay type: binding; conditions: crystal soak with 20 mM glycan; same site as GM2 glycan; STD NMR pH 7.4, 283 K
T1 construct: gene S1; residues 261-470, three C-terminal beta-spirals plus head; E. coli; trimeric GCN4 zipper and His6-tag removed by trypsin (kept for glycan array); trimer

[1] = target: the molecule itself; assay: crystal structure; crystals of cleaved σ1_(long) grown in 0.1 M Na cacodylate (pH 6.0–6.6), 1.2–1.5 M (NH4)2SO4 at 4°C, soaked with 20 mM GM2 or GM3 oligosaccharide; space group P3_(2)21; 3.6 Å (GM2) and 3.5 Å (GM3)

Row | Molecule | X-ray crystal structure (3.5 Å); also STD NMR (T1L σ1long) | stoichiometry N [1]
1 | CC(=O)N[C@H]1[C@H]([C@H](O)[C@H](O)CO)O[C@@](O[C@H]2[C@@H](O)[C@@H](CO)O[C@@H](O[C@H]3[C@H](O)[C@@H](O)C(O)O[C@@H]3CO)[C@@H]2O)(C(=O)O)C[C@@H]1O (some centres unmarked) [GM3 glycan] | 4GU4 (T1L σ1-GM3 glycan complex) | –
2 | B1 | – | 3
